In BindingDB's records for doi:10.1016/j.bmcl.2009.04.143 (Incyte, 2009):

assay: Inhibition of HER2 extracellular domain sheddase activity in human BT474 cells after 72 hrs by ELISA

| SMILES | IC50 [µM] |
| --- | --- |
| O=C(NO)[C@H]1CC2(CC[C@@H]1C(=O)N1CCN(c3ccccc3)CC1)CC2 [(5S,6S)-N-hydroxy-6-(4-phenylpiperazine-1-carbonyl)spiro[2.5]octane-5-carboxamide] | 0.1 |
| O=C(NO)[C@H]1CC(CC(=O)N2CCCC2)CN[C@@H]1C(=O)N1CCN(c2ccccc2)CC1 (mixture of isomers) [(2S,3S,5RS)-N-hydroxy-5-(2-oxo-2-(pyrrolidin-1-yl)ethyl)-2-(4-phenylpiperazine-1-carbonyl)piperidine-3-carboxamide] | 0.028 |
| O=C(NO)[C@H]1CC(CC(=O)N2CC[C@@H](O)C2)CC[C@@H]1C(=O)N1CCN(c2ccccc2)CC1 (mixture of isomers) [(1S,2S,5RS)-N-hydroxy-5-(2-((R)-3-hydroxypyrrolidin-1-yl)-2-oxoethyl)-2-(4-phenylpiperazine-1-carbonyl)cyclohexanecarboxamide] | 0.226 |
| CN1CCN(C(=O)CC2CC[C@H](C(=O)N3CCN(c4ccccc4)CC3)[C@@H](C(=O)NO)C2)CC1 (mixture of isomers) [(1S,2S,5RS)-N-hydroxy-5-(2-(4-methylpiperazin-1-yl)-2-oxoethyl)-2-(4-phenylpiperazine-1-carbonyl)cyclohexanecarboxamide] | 0.1 |
| CN1CC(CC(=O)N2CCCCC2)C[C@H](C(=O)NO)[C@H]1C(=O)N1CCN(c2ccccc2)CC1 (mixture of isomers) [(2S,3S,5RS)-N-hydroxy-1-methyl-5-(2-oxo-2-(piperidin-1-yl)ethyl)-2-(4-phenylpiperazine-1-carbonyl)piperidine-3-carboxamide] | 0.102 |
| O=C(NO)[C@H]1CC(CC(=O)N2CCOCC2)CC[C@@H]1C(=O)N1CCN(c2ccccc2)CC1 (mixture of isomers) [(1S,2S,5RS)-N-hydroxy-5-(2-morpholino-2-oxoethyl)-2-(4-phenylpiperazine-1-carbonyl)cyclohexanecarboxamide] | 0.208 |
